Test results: PubChem BioAssay (NCI)
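Compound exposure: 48 hours, 5 concentrations, 96-well plates. GI50 = concentration required for 50% inhibition of growth. Definition used: TGI = concentration required for complete inhibition of growth.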

What was measured:
Test in all cases: DTP human tumour cell line panel, 48 h
OVCAR-3 ovarian = test system: OVCAR-3 ovarian
ACHN renal = test system: ACHN renal
CCRF-CEM leukemia = test system: CCRF-CEM leukemia
NCI/ADR-RES ovarian = test system: NCI/ADR-RES ovarian
MDA-MB-435 = test system: MDA-MB-435
UO-31 renal = test system: UO-31 renal
TK-10 renal = test system: TK-10 renal
UACC-257 melanoma = test system: UACC-257 melanoma
SW-620 colon = test system: SW-620 colon
PC-3 prostate = test system: PC-3 prostate
HCC-2998 colon = test system: HCC-2998 colon
SK-OV-3 ovarian = test system: SK-OV-3 ovarian
SF-268 CNS = test system: SF-268 CNS
SR leukemia = test system: SR leukemia
HOP-62 NSCLC = test system: HOP-62 NSCLC
K-562 leukemia = test system: K-562 leukemia
M14 melanoma = test system: M14 melanoma
786-0 renal = test system: 786-0 renal
U251 CNS = test system: U251 CNS
SK-MEL-28 melanoma = test system: SK-MEL-28 melanoma
OVCAR-4 ovarian = test system: OVCAR-4 ovarian
DU-145 prostate = test system: DU-145 prostate
MCF7 breast = test system: MCF7 breast
UACC-62 melanoma = test system: UACC-62 melanoma
OVCAR-8 ovarian = test system: OVCAR-8 ovarian
MDA-MB-231 breast = test system: MDA-MB-231 breast
SF-295 CNS = test system: SF-295 CNS
MALME-3M melanoma = test system: MALME-3M melanoma
SF-539 CNS = test system: SF-539 CNS
IGROV1 ovarian = test system: IGROV1 ovarian
NCI-H522 lung = test system: NCI-H522 lung
BT-549 breast = test system: BT-549 breast
LOX IMVI melanoma = test system: LOX IMVI melanoma
SK-MEL-5 melanoma = test system: SK-MEL-5 melanoma
SNB-19 CNS = test system: SNB-19 CNS
SNB-75 CNS = test system: SNB-75 CNS
T-47D breast = test system: T-47D breast
HS 578T breast = test system: HS 578T breast
NCI-H226 lung = test system: NCI-H226 lung
EKVX NSCLC = test system: EKVX NSCLC
COLO 205 colon = test system: COLO 205 colon
SK-MEL-2 melanoma = test system: SK-MEL-2 melanoma
RPMI-8226 leukemia = test system: RPMI-8226 leukemia
NCI-H460 lung = test system: NCI-H460 lung
A549 NSCLC = test system: A549 NSCLC
HCT-116 colon = test system: HCT-116 colon
SN12C renal = test system: SN12C renal
MOLT-4 leukemia = test system: MOLT-4 leukemia
HT29 colon = test system: HT29 colon
OVCAR-5 ovarian = test system: OVCAR-5 ovarian
HCT-15 colon = test system: HCT-15 colon
HOP-92 NSCLC = test system: HOP-92 NSCLC
NCI-H23 lung = test system: NCI-H23 lung
CAKI-1 renal = test system: CAKI-1 renal
A498 renal = test system: A498 renal
RXF 393 renal = test system: RXF 393 renal
KM12 colon = test system: KM12 colon
HL-60(TB) leukemia = test system: HL-60(TB) leukemia

COc1nc(Cl)nc(Cl)c1Cl (tested in a mixture with another compound)
TGI (OVCAR-3 ovarian): 12.4 µM
TGI (ACHN renal): 17.6 µM
TGI (CCRF-CEM leukemia): 12.1 µM
TGI (NCI/ADR-RES ovarian): > 27.7 µM
TGI (MDA-MB-435): > 36.3 µM
TGI (UO-31 renal): 1.94 µM
TGI (TK-10 renal): 19 µM
TGI (UACC-257 melanoma): 12 µM
TGI (SW-620 colon): 20.8 µM
TGI (PC-3 prostate): 26 µM
TGI (HCC-2998 colon): 0.672 µM
TGI (SK-OV-3 ovarian): 32.7 µM
TGI (SF-268 CNS): > 31.7 µM
TGI (SR leukemia): 4.65 µM
TGI (HOP-62 NSCLC): 10.3 µM
TGI (K-562 leukemia): 23.8 µM
TGI (M14 melanoma): 27.6 µM
TGI (786-0 renal): > 46.7 µM
TGI (U251 CNS): 23 µM
TGI (SK-MEL-28 melanoma): 62.9 µM
TGI (OVCAR-4 ovarian): 14.1 µM
TGI (DU-145 prostate): 15.5 µM
TGI (MCF7 breast): 24.2 µM
TGI (UACC-62 melanoma): 28.6 µM
TGI (OVCAR-8 ovarian): > 30.8 µM
TGI (MDA-MB-231 breast): > 39.1 µM
TGI (SF-295 CNS): 36.3 µM
TGI (MALME-3M melanoma): 47.3 µM
TGI (SF-539 CNS): 21.6 µM
TGI (IGROV1 ovarian): 26.2 µM
TGI (NCI-H522 lung): 1.55 µM
TGI (BT-549 breast): 22.5 µM
TGI (LOX IMVI melanoma): 12.8 µM
TGI (SK-MEL-5 melanoma): 31.5 µM
TGI (SNB-19 CNS): 18.5 µM
TGI (SNB-75 CNS): > 61.4 µM
TGI (T-47D breast): 44.4 µM
TGI (HS 578T breast): > 100 µM
TGI (NCI-H226 lung): 77 µM
TGI (EKVX NSCLC): 1.4 µM
TGI (COLO 205 colon): 26.8 µM
TGI (SK-MEL-2 melanoma): 22.6 µM
TGI (RPMI-8226 leukemia): 5.61 µM
TGI (NCI-H460 lung): 12.1 µM
TGI (A549 NSCLC): > 66 µM
TGI (HCT-116 colon): 19.5 µM
TGI (SN12C renal): 51.6 µM
TGI (MOLT-4 leukemia): 10.1 µM
TGI (HT29 colon): 17.9 µM
TGI (OVCAR-5 ovarian): 49.9 µM
TGI (HCT-15 colon): 18.7 µM
TGI (HOP-92 NSCLC): 14.9 µM
TGI (NCI-H23 lung): 20.8 µM
TGI (CAKI-1 renal): 0.194 µM
TGI (A498 renal): 37.4 µM
TGI (RXF 393 renal): 31.7 µM

N#Cc1c(Br)n(C2OC(CO)C(O)C2O)c2ncn3ccnc3c12 (stereo unspecified)
GI50 (OVCAR-3 ovarian): > 100 µM
TGI (OVCAR-3 ovarian): > 100 µM
GI50 (ACHN renal): 57.6 µM
TGI (ACHN renal): > 100 µM
GI50 (CCRF-CEM leukemia): > 100 µM
TGI (CCRF-CEM leukemia): > 100 µM
GI50 (NCI/ADR-RES ovarian): > 100 µM
TGI (NCI/ADR-RES ovarian): > 100 µM
GI50 (MDA-MB-435): > 100 µM
TGI (MDA-MB-435): > 100 µM
GI50 (UO-31 renal): 53.6 µM
TGI (UO-31 renal): > 100 µM
GI50 (KM12 colon): > 100 µM
TGI (KM12 colon): > 100 µM
GI50 (TK-10 renal): > 100 µM
TGI (TK-10 renal): > 100 µM
GI50 (UACC-257 melanoma): > 100 µM
TGI (UACC-257 melanoma): > 100 µM
GI50 (SW-620 colon): 44.1 µM
TGI (SW-620 colon): > 100 µM
GI50 (PC-3 prostate): 63.8 µM
TGI (PC-3 prostate): > 100 µM
GI50 (HCC-2998 colon): > 100 µM
TGI (HCC-2998 colon): > 100 µM
GI50 (SK-OV-3 ovarian): > 100 µM
TGI (SK-OV-3 ovarian): > 100 µM
GI50 (SF-268 CNS): 58 µM
TGI (SF-268 CNS): > 100 µM
GI50 (SR leukemia): 50.7 µM
TGI (SR leukemia): > 100 µM
GI50 (HOP-62 NSCLC): > 100 µM
TGI (HOP-62 NSCLC): > 100 µM
GI50 (K-562 leukemia): 62.4 µM
TGI (K-562 leukemia): > 100 µM
GI50 (M14 melanoma): > 100 µM
TGI (M14 melanoma): > 100 µM
GI50 (786-0 renal): > 100 µM
TGI (786-0 renal): > 100 µM
GI50 (U251 CNS): > 100 µM
TGI (U251 CNS): > 100 µM
GI50 (SK-MEL-28 melanoma): > 100 µM
TGI (SK-MEL-28 melanoma): > 100 µM
GI50 (DU-145 prostate): 69.5 µM
TGI (DU-145 prostate): > 100 µM
GI50 (MCF7 breast): > 100 µM
TGI (MCF7 breast): > 100 µM
GI50 (UACC-62 melanoma): > 100 µM
TGI (UACC-62 melanoma): > 100 µM
GI50 (OVCAR-8 ovarian): 52.3 µM
TGI (OVCAR-8 ovarian): > 100 µM
GI50 (MDA-MB-231 breast): > 100 µM
TGI (MDA-MB-231 breast): > 100 µM
GI50 (SF-295 CNS): > 100 µM
TGI (SF-295 CNS): > 100 µM
GI50 (MALME-3M melanoma): > 100 µM
TGI (MALME-3M melanoma): > 100 µM
GI50 (SF-539 CNS): > 100 µM
TGI (SF-539 CNS): > 100 µM
GI50 (IGROV1 ovarian): 81.9 µM
TGI (IGROV1 ovarian): > 100 µM
GI50 (NCI-H522 lung): > 100 µM
TGI (NCI-H522 lung): > 100 µM
GI50 (BT-549 breast): > 100 µM
TGI (BT-549 breast): > 100 µM
GI50 (LOX IMVI melanoma): 60.1 µM
TGI (LOX IMVI melanoma): > 100 µM
GI50 (SK-MEL-5 melanoma): 64 µM
TGI (SK-MEL-5 melanoma): > 100 µM
GI50 (SNB-19 CNS): > 100 µM
TGI (SNB-19 CNS): > 100 µM
GI50 (SNB-75 CNS): > 100 µM
TGI (SNB-75 CNS): > 100 µM
GI50 (T-47D breast): > 100 µM
TGI (T-47D breast): > 100 µM
GI50 (HS 578T breast): > 100 µM
TGI (HS 578T breast): > 100 µM
GI50 (NCI-H226 lung): 40.6 µM
TGI (NCI-H226 lung): > 100 µM
GI50 (EKVX NSCLC): > 100 µM
TGI (EKVX NSCLC): > 100 µM
GI50 (COLO 205 colon): 55.1 µM
TGI (COLO 205 colon): > 100 µM
GI50 (RPMI-8226 leukemia): > 100 µM
TGI (RPMI-8226 leukemia): > 100 µM
GI50 (NCI-H460 lung): 40.7 µM
TGI (NCI-H460 lung): > 100 µM
GI50 (A549 NSCLC): > 100 µM
TGI (A549 NSCLC): > 100 µM
GI50 (HCT-116 colon): 46.8 µM
TGI (HCT-116 colon): > 100 µM
GI50 (HL-60(TB) leukemia): > 100 µM
TGI (HL-60(TB) leukemia): > 100 µM
GI50 (SN12C renal): > 100 µM
TGI (SN12C renal): > 100 µM
GI50 (MOLT-4 leukemia): 41.9 µM
TGI (MOLT-4 leukemia): > 100 µM
GI50 (HT29 colon): 65.3 µM
TGI (HT29 colon): > 100 µM
GI50 (OVCAR-5 ovarian): > 100 µM
TGI (OVCAR-5 ovarian): > 100 µM
GI50 (HCT-15 colon): > 100 µM
TGI (HCT-15 colon): > 100 µM
GI50 (NCI-H23 lung): > 100 µM
TGI (NCI-H23 lung): > 100 µM
GI50 (CAKI-1 renal): > 100 µM
TGI (CAKI-1 renal): > 100 µM
GI50 (A498 renal): 19.9 µM
TGI (A498 renal): > 100 µM
GI50 (RXF 393 renal): 86.7 µM
TGI (RXF 393 renal): > 100 µM
